In patent US5721223A, “Imidazo[1,2-a] Pyridinyldiacid compounds for cognitive enhancement and for treatment of cognitive disorders and neurotoxic injury” (priority 1995, dated 1998) one finds Ki data, which are given here for 1 compound.

The target in this experiment is T1, glycine receptor site (Rattus norvegicus, UniProt P35439).
T1 construct: Synaptic plasma membranes (SPM) were prepared from rat forebrain; from tissue; host or cells: rat forebrain synaptic plasma membranes
Briefly: Glycine binding assay ([3H]GLY). The settings on record: [3H]glycine 10 nM, rat forebrain SPM. How it is done: Synaptic plasma membranes (SPM) were prepared from rat forebrain and stored as previously described [J. B. Monahan and J. Michel, J. Neurochem, 48, 1699-1708 (1987)]. Frozen membranes were thawed and diluted 1:20 with 0.04% Triton X-100 in 50 mM tris/acetate (pH 7.4). Following incubation at 37° C. for 30 min., the SPM were collected by centrifugation at 95,000×g for 15 min. The pellet was resuspended in 50 mM tris/acetate (pH 7.4, Triton-free) and hand-homogenized five times. The membranes were again centrifuged as above. The pellet was washed two additional times with 50 mM tris/acetate (without homogenization) and centrifuged. The final pellet was resuspended with homogenization in 50 mM tris/acetate. In the general receptor binding assay procedure, 10 nM [3H]glycine was added to the appropriate concentration of the test compounds and the assay initiated by the addition of 0.2-0.4 mg of ice cold SPM. […] Beckman MP scintillation cocktail (5 mL) containing 7 mL/liter acetic acid was then added and the samples counted on a Beckman LS 5800 liquid scintillation counter with automatic corrections for quenching and counting efficiency. […] The binding of [3H]glycine to the SPM was analyzed using Scatchard and Hill transformations and the Ki for other compounds was determined using logit-log analysis. […]

Structures are written as SMILES. Where a name gives a salt, the structure may show the parent alone.

The term Ki denotes the equilibrium dissociation constant of an inhibitor or competing ligand from its target. High values mean weaker binding, low ones tighter binding. For the compound `O=C(O)Cc1c(C(=O)O)nc2ccccn12` [Example 3, hydrochloride], affinity was put at a Ki of 51 µM.
